Test results published in patent US20240180880A1, “METHODS OF USING EHMT2 INHIBITORS IN TREATING OR PREVENTING BLOOD DISORDERS” (Epizyme, Inc., priority 2017, published 2024).
Like-named read-outs stand apart in the source and are kept apart here.

System: 284 cell lines
Assay: cells
Method: A screen of 284 cell lines to assess the antiproliferative effect of EHMT2 inhibition was conducted by treating cell lines in 384-well format with a half-log step dilutions of Compound 205 over 10 concentrations with a maximum concentration of 0.1% v/v DMSO. Cells were plated on Day 0 and treated with compound on Day 1. Culture medium was replaced on day 7 and cells redosed. After 10-day incubation, cells were fixed and stained with nuclear dye. Automated fluorescence microscopy was carried out using a Molecular Devices ImageXpress Micro XL high-content imager, and images were collected with a 4× objective. 16-bit TIFF images were acquired and analyzed with MetaXpress 5.1.0.41 software. Cell proliferation was measured by the fluorescence intensity of the incorporated nuclear dye. Cell count IC50 is the test compound concentration at 50% of maximal response of the untreated control.

`CNc1cc(C)nc(Nc2ccc(OC)c(OCCCN3CCCC3)c2)n1` [Compound 205] was tested, and the IC50 (BM-1604, read-out: Cell Count IC50, BM-1604, Prostate) was > 10 µM, the IC50 (C32TG, read-out: Cell Count IC50, C32TG, Skin, Melanoma) was 1 to 10 µM and the IC50 (CEM/C1, read-out: Cell Count IC50, CEM-C1, Hematopoietic, Leukemia) was > 10 µM. It also gave an IC50 (CML-T1, read-out: Cell Count IC50, CML-T1, Hematopoietic, Leukemia) of 1 to 10 µM, an IC50 (D341 Med, read-out: Cell Count IC50, D341 Med, Central Nervous System, Medulloblastoma) of 1 to 10 µM and an IC50 (HUH-6-clone5, read-out: Cell Count IC50, HUH-6 Clone 5, Liver) of 1 to 10 µM. The IC50 (Homo sapiens, 22Rv1, read-out: Cell Count IC50, 22Rv1, Prostate) was 1 to 10 µM, the IC50 (Homo sapiens, 639-V, read-out: Cell Count IC50, 639-V, Bladder) was > 10 µM and the IC50 (Homo sapiens, 647-V, read-out: Cell Count IC50, 647-V, Bladder) was 1 to 10 µM. For the same compound, the IC50 (Homo sapiens, 769-P, read-out: Cell Count IC50, 769-P, Kidney) was 1 to 10 µM, the IC50 (Homo sapiens, 786-0, read-out: Cell Count IC50, 786-O, Kidney) was > 10 µM and the IC50 (Homo sapiens, A101D, read-out: Cell Count IC50) was 1 to 10 µM. The IC50 (Homo sapiens, A 172, read-out: Cell Count IC50, A172, Central Nervous System, Glioma) was 1 to 10 µM, the IC50 (Homo sapiens, A204, read-out: Cell Count IC50, A204, Soft & Connective Tissue, Sarcoma) was 0.01 to 0.1 µM and the IC50 (Homo sapiens, A253, read-out: Cell Count IC50, A-253, Head and Neck) was > 10 µM. For the same compound, the IC50 (Homo sapiens, A498, read-out: Cell Count IC50, A498, Kidney) was 1 to 10 µM, the IC50 (Homo sapiens, A549, read-out: Cell Count IC50, A549, Lung, NSCLC) was > 10 µM and the IC50 (Homo sapiens, A673, read-out: Cell Count IC50, A-673, Soft & Connective Tissue, Sarcoma) was > 10 µM. The IC50 (Homo sapiens, A704, read-out: Cell Count IC50, A-704, Kidney) was 1 to 10 µM, the IC50 (Homo sapiens, A2058, read-out: Cell Count IC50, A2058, Skin, Melanoma) was 1 to 10 µM and the IC50 (Homo sapiens, A-375, read-out: Cell Count IC50, A375, Skin, Melanoma) was 1 to 10 µM. The IC50 (Homo sapiens, A-427, read-out: Cell Count IC50, A427, Lung, NSCLC) was 1 to 10 µM, the IC50 (Homo sapiens, A-431, read-out: Cell Count IC50, A431, Skin, Head and Neck) was 1 to 10 µM and the IC50 (Homo sapiens, ACHN, read-out: Cell Count IC50, ACHN, Kidney) was 1 to 10 µM. The IC50 (Homo sapiens, AN3-CA, read-out: Cell Count IC50, AN3 CA, Female GU, Uterus) was > 10 µM, the IC50 (Homo sapiens, ARH-77, read-out: Cell Count IC50, ARH-77, Hematopoietic, Myeloma) was 1 to 10 µM and the IC50 (Homo sapiens, ASPC1, read-out: Cell Count IC50, AsPC-1, Pancreas) was 1 to 10 µM. The IC50 (Homo sapiens, BE(2)-C, read-out: Cell Count IC50, BE(2)C, Central Nervous System, Neuroblastoma) was > 10 µM, the IC50 (Homo sapiens, BFTC-905, read-out: Cell Count IC50, BFTC-905, Bladder) was 0.01 to 0.1 µM and the IC50 (Homo sapiens, BHT-101, read-out: Cell Count IC50, BHT-101, Endocrine, Thyroid) was 1 to 10 µM. For the same compound, the IC50 (Homo sapiens, BPH-1, read-out: Cell Count IC50, BPH1, Prostate) was > 10 µM, the IC50 (Homo sapiens, BT-20, read-out: Cell Count IC50, BT20, Breast) was > 10 µM and the IC50 (Homo sapiens, BT-474, read-out: Cell Count IC50, BT474, Breast) was 1 to 10 µM. The IC50 (Homo sapiens, BT-549, read-out: Cell Count IC50, BT-549, Breast) was > 10 µM, the IC50 (Homo sapiens, BV-173, read-out: Cell Count IC50, BV-173, Hematopoietic, Leukemia) was 1 to 10 µM and the IC50 (Homo sapiens, BXPC-3, read-out: Cell Count IC50, BxPC-3, Pancreas) was 1 to 10 µM. The IC50 (Homo sapiens, BeWo, read-out: Cell Count IC50, BeWo, Placenta) was > 10 µM, the IC50 (Homo sapiens, C-4-II, read-out: Cell Count IC50, C-4 II, Female GU, Cervix) was > 10 µM and the IC50 (Homo sapiens, C-33-A, read-out: Cell Count IC50, C-33A, Female GU, Cervix) was > 10 µM. It also gave an IC50 (Homo sapiens, CA46, read-out: Cell Count IC50, CA46, Hematopoietic, Lymphoma) of 1 to 10 µM, an IC50 (Homo sapiens, CAKI-1, read-out: Cell Count IC50, Caki-1, Kidney) of 1 to 10 µM and an IC50 (Homo sapiens, CAKI-2, read-out: Cell Count IC50, Caki-2, Kidney) of 1 to 10 µM. The IC50 (Homo sapiens, CAL-27, read-out: Cell Count IC50, Cal 27, Head and Neck) was 1 to 10 µM, the IC50 (Homo sapiens, CAL-62, read-out: Cell Count IC50, CAL-62, Endocrine, Thyroid) was > 10 µM and the IC50 (Homo sapiens, CAMA-1, read-out: Cell Count IC50, CAMA-1, Breast) was 1 to 10 µM. For the same compound, the IC50 (Homo sapiens, CAPAN-1, read-out: Cell Count IC50, Capan-1, Pancreas) was > 10 µM, the IC50 (Homo sapiens, CCF-STTG1, read-out: Cell Count IC50, CCF-STTG1, Central Nervous System, Glioma) was 1 to 10 µM and the IC50 (Homo sapiens, CCRF-CEM, read-out: Cell Count IC50, CCRFCEM, Hematopoietic, Leukemia) was > 10 µM. The IC50 (Homo sapiens, CFPAC-1, read-out: Cell Count IC50, CFPAC-1, Pancreas) was > 10 µM, the IC50 (Homo sapiens, CGTH-W-1, read-out: Cell Count IC50, CGTH-W-1, Endocrine, Thyroid) was > 10 µM and the IC50 (Homo sapiens, CHL-1, read-out: Cell Count IC50, CHL-1, Skin, Melanoma) was > 10 µM. For the same compound, the IC50 (Homo sapiens, CHP-212, read-out: Cell Count IC50, CHP-212, Central Nervous System, Neuroblastoma) was 0.1 to 1 µM, the IC50 (Homo sapiens, COLO 201, read-out: Cell Count IC50, Colo 201, Colon) was 1 to 10 µM and the IC50 (Homo sapiens, COLO 205, read-out: Cell Count IC50, Colo 205, Colon) was 1 to 10 µM. The IC50 (Homo sapiens, COLO 320DM, read-out: Cell Count IC50, Colo 320DM, Colon) was > 10 µM, the IC50 (Homo sapiens, COLO-320-HSR, read-out: Cell Count IC50, Colo 320 HSR, Colon) was > 10 µM and the IC50 (Homo sapiens, COLO-829, read-out: Cell Count IC50, COLO 829, Skin, Melanoma) was 1 to 10 µM. The IC50 (Homo sapiens, COR-L23, read-out: Cell Count IC50, COR-L23, Lung, NSCLC) was 1 to 10 µM, the IC50 (Homo sapiens, COR-L105, read-out: Cell Count IC50, COR-L105, Lung, NSCLC) was 1 to 10 µM and the IC50 (Homo sapiens, Ca-Ski, read-out: Cell Count IC50, Ca Ski, Female GU, Cervix) was 0.1 to 1 µM. The IC50 (Homo sapiens, Calu-1, read-out: Cell Count IC50, Calu1, Lung, NSCLC) was > 10 µM, the IC50 (Homo sapiens, Calu-6, read-out: Cell Count IC50, Calu6, Lung, NSCLC) was > 10 µM and the IC50 (Homo sapiens, Caov-3, read-out: Cell Count IC50, CaOV3, Female GU, Ovary) was 1 to 10 µM. For the same compound, the IC50 (Homo sapiens, Capan-2, read-out: Cell Count IC50, Capan-2, Pancreas) was > 10 µM, the IC50 (Homo sapiens, ChaGo-K-1, read-out: Cell Count IC50, ChaGoK1, Lung, NSCLC) was > 10 µM and the IC50 (Homo sapiens, D283 Med, read-out: Cell Count IC50, D283 Med, Central Nervous System, Medulloblastoma) was 1 to 10 µM. For the same compound, the IC50 (Homo sapiens, DBTRG-05MG, read-out: Cell Count IC50, DBTRG-05MG, Central Nervous System, Glioma) was 1 to 10 µM, the IC50 (Homo sapiens, DLD-1, read-out: Cell Count IC50, DLD-1, Colon) was > 10 µM and the IC50 (Homo sapiens, DMS-53, read-out: Cell Count IC50, DMS53, Lung, SCLC) was 0.1 to 1 µM. It also gave an IC50 (Homo sapiens, DMS-114, read-out: Cell Count IC50, DMS114, Lung, SCLC) of 1 to 10 µM and an IC50 (Homo sapiens, DOHH-2, read-out: Cell Count IC50, DOHH-2, Hematopoietic, Lymphoma) of 1 to 10 µM.
